The values that follow come from US20240368174A1, “Antiviral Heterocyclic Compounds” (Enanta Pharmaceuticals, Inc., priority 2023, published 2024).

Broadly, the EC50 is the concentration needed to bring the measured effect to its halfway point. Lower therefore signals an effect from little substance.

The test system of the first test is HMPV clinical isolate A2 strain TN 94-49. The test is described as follows: HMPV antiviral assay, Method 2 (LLC-MK2 cells with CP-100-356, ATP-Lite). It is filed as cell-based. To be noted: human metapneumovirus, 168 h; hMPV A2 TN/94-49, LLC-MK2 cells with 4 μM CP-100-356, 7 days, ATP-Lite. The method in brief: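 LLC-MK2 rhesus kidney cells (5,000/well) infected in suspension with HMPV A2 TN 94-49 at MOI 0.16, in serum-free medium with final 2 μg/mL TPCK-trypsin and 2 μM CP-100-356. Compounds tested in duplicate from 200 nM, 2.5-fold, 10 points; 7 days at 37 °C. Cell health by ATP-Lite luminescence; EC50 by four-parameter fit.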
On to `COc1cc(C(=O)NC[C@](O)(c2cc3c(c(-c4cccc(C(=O)N(C)C)c4Cl)n2)OC[C@]3(C)C(N)=O)C2CC2)cc2cn(C3CC3)nc12` [Example 809], for which the EC50 was above 200 nM.
Same read-out and setting: next, `COc1cc(C(=O)NC[C@](O)(c2cc3c(c(-c4ccnc(C(C)C)c4Cl)n2)OC[C@]3(C)C(N)=O)C2CC2)cn2cc(C3CC3)nc12` [Example 911]: above 200 nM; `COc1cc(C(=O)NC[C@](O)(c2cc3c(c(-c4ccnc(N(C)C)c4Cl)n2)OC[C@]3(C)C(N)=O)C2CC2)cc2cn(C3CC3)nc12` [Example 811]: below 200 nM; `COc1cc(-c2nc([C@@](O)(CNC(=O)c3cc(OC)c4nn(C5CC5)cc4c3)C(F)(F)F)cc3c2OC[C@]3(C)C(N)=O)c(Cl)cn1` [Example 835]: above 200 nM.
Consider `C[C@]1(C(N)=O)COc2c1cc([C@@](O)(CNC(=O)c1cc(Cl)c3nn(C4CC4)cc3c1)C1CC1)nc2-c1cc(C(F)(F)F)ncc1F` [Example 660], for which the EC50 was below 200 nM.
Molecule `COc1cc(C(=O)NC[C@](O)(c2cc3c(c(-n4cc5cc(F)ccc5n4)n2)OC[C@]3(C)C(N)=O)C2CC2)cc2cn(C3CC3)nc12` [Example 719] showed an EC50 above 200 nM.
On to `COc1cc(C(=O)NC[C@](O)(c2cc3c(c(-c4c(F)cncc4F)n2)OC[C@]3(C)C(N)=O)C2CC2)cc2cn(C3CC3)nc12` [Example 729], for which the EC50 was below 200 nM.
For the molecule `COc1cc(C(=O)NC[C@@](O)(c2ccccc2)c2cc3c(c(-n4ncc5c(F)cccc54)n2)OC[C@]3(C)C(N)=O)cc2sc(N)nc12` [Example 633], the EC50 is above 200 nM.
In turn, `COc1nccc(-c2nc([C@@](O)(CNC(=O)c3cc(OC4CC4)c4nn(C5CC5)cc4c3)C3(F)CC3)cc3c2OC[C@]3(C)C(N)=O)c1Cl` [Example 657] yielded an EC50 below 200 nM.
Molecule `COc1cc(C(=O)NC[C@@](O)(c2ccc(F)cc2)c2cc3c(c(-c4ccnc(C)c4Cl)n2)OC[C@]3(C)C(N)=O)cc2cn(C3CC3)nc12` [Example 646] showed an EC50 below 200 nM.
With `COc1cc(C(=O)NC[C@](O)(c2cc3c(c(-c4ccnc5[nH]ccc45)n2)OC[C@]3(C)C(N)=O)C2CC2)cc2cn(C3CC3)nc12` [Example 728], the concentration for a half-maximal effect (EC50) is above 200 nM.
In the case of `COc1cc(C(=O)NC[C@](O)(c2cc3c(c(-c4ccnc(C(F)(F)F)c4)n2)OC[C@]3(C)C(N)=O)C2CC2)cc2oc(C3CC3)nc12` [Example 763], the EC50 was below 200 nM.
On the same count and under the same terms, then `COc1cc(-c2nc([C@@](O)(CNC(=O)c3cc(OC)n4nc(C5CC5)cc4c3)c3ccccc3)cc3c2OC[C@]3(C)C(N)=O)c(F)cn1` [Example 639], with below 200 nM; and `COc1cc(C(=O)NC[C@](O)(c2cc3c(c(-c4ccnc(Cl)c4C)n2)OC[C@]3(C)C(N)=O)C2CC2)cc2cn(C3CC3)nc12` [Example 815], with below 200 nM.
`COc1cc(C(=O)NC[C@](O)(c2cc3c(c(-c4ccnc(C(F)(F)F)c4Cl)n2)OC[C@]3(C)C(N)=O)C(F)(F)F)cc2cn(C(F)F)nc12` [Example 790] returned a 50% effective concentration (EC50) below 200 nM.
`COc1cc(C(=O)NC[C@](O)(c2cc3c(c(-c4ccnc(C)c4Cl)n2)OC[C@]3(C)C(N)=O)C2CC2)cc2cn(C3CC3)nc12` [Example 871] registered an EC50 below 200 nM.

The test is the same for the next values; noted with them: human metapneumovirus; hMPV A2 TN/94-49, LLC-MK2 cells with CP-100-356, Method 2.
Molecule `COc1cc(C(=O)NC[C@](O)(c2cc3c(c(-c4ccnc(C)c4Cl)n2)OC[C@]3(C)C(N)=O)C2(F)CC2)cc2oc(C(F)F)nc12` [Example 533] registered an EC50 above 200 nM.
Same read-out and setting: next, `COc1cc(C(=O)NC[C@@](O)(c2ccccc2)c2cc3c(c(-c4ccnc(F)c4Cl)n2)OC[C@]3(C)C(N)=O)cn2cc(C3CC3)nc12` [Example 359]: below 200 nM; `C[C@]1(C(N)=O)COc2c1cc([C@@](O)(CNC(=O)c1ccc3nc(-c4ccc5nc(C(F)F)oc5c4)oc3c1)c1ccccc1)nc2-c1cc(Cl)c(F)cc1F` [Example 223]: above 200 nM.
Same read-out and setting: next, `COc1nccc(-c2nc([C@@](O)(CNC(=O)c3cc(OC)c4nc(C(F)F)oc4c3)c3cccc(F)c3)cc3c2OC[C@]3(C)C(N)=O)c1Cl` [Example 561]: below 200 nM.
`Cc1nc2c(OC(F)F)cc(C(=O)NC[C@](O)(c3cc4c(c(-c5cc(Cl)c(F)cc5F)n3)OC[C@]4(C)C(N)=O)c3ccccc3F)cc2cc1Br` [Example 139] gave an EC50 above 200 nM.
`COc1cc(C(=O)NC[C@@](O)(c2cccc(Cl)n2)c2cc3c(c(-c4cc(Cl)c(F)cc4F)n2)OC[C@]3(C)C(N)=O)cc2cn(C3CC3)nc12` [Example 489] came in with an EC50 below 200 nM.
`COc1cc(C(=O)NC[C@@](O)(c2ccccc2)c2cc3c(c(-c4cccc(Cl)c4F)n2)OC[C@]3(C)C(N)=O)cc2cn(C3(F)CC3)nc12` [Example 369] showed an EC50 below 200 nM.
In the case of `C[C@]1(C(N)=O)COc2c1cc([C@@](O)(CNC(=O)c1cc(OC3CC3)c3ncc(Cl)cc3c1)c1ccccc1)nc2-c1ccc(F)c(Cl)c1Cl` [Example 313], the EC50 is below 200 nM.
`COc1cc(C(=O)NC[C@](O)(c2cc3c(c(-c4ccnc(C)c4Cl)n2)OC[C@]3(C)C(N)=O)C2(F)CC2)cn2cc(C3(F)CC3)nc12` [Example 528]: the EC50 was above 200 nM.
On the same count and under the same terms, then `COc1cc(C(=O)NC[C@@](O)(c2ccccc2)c2cc3c(c(-c4cc(Cl)ccc4F)n2)OC[C@]3(C)C(N)=O)cc2oc(C3CC3)nc12` [Example 331], with below 200 nM; and `COc1cc(C(=O)NC[C@](O)(c2cc3c(c(-c4cc(F)ncc4Cl)n2)OC[C@]3(C)C(N)=O)C2CC2)cc2cn(C3CC3)nc12` [Example 384], with below 200 nM.
Still for that read-out and setting: next, `COc1cc(C(=O)NC[C@@](O)(c2ccnc(C#N)c2)c2cc3c(c(-c4cc(Cl)c(F)cc4F)n2)OC[C@]3(C)C(N)=O)cc2cn(C3CC3)nc12` [Example 501]: below 200 nM.
On the same count and under the same terms, next, `COc1cc(C(=O)NC[C@@](O)(c2cccc(F)c2)c2cc3c(c(-c4cc(C(F)(F)F)c(F)cc4F)n2)OC[C@]3(C)C(N)=O)cc2cn(C(F)F)nc12` [Example 301]: below 200 nM; `COc1cc(C(=O)NC[C@@](O)(c2cnn(C)c2)c2cc3c(c(-c4cc(Cl)c(F)cc4F)n2)OC[C@]3(C)C(N)=O)cc2cn(C3CC3)nc12` [Example 153]: above 200 nM.
`COc1cc(C(=O)NC[C@](O)(c2cc3c(c(-c4cc(C(F)(F)F)ncc4F)n2)OC[C@]3(C)C(N)=O)C2CC2)cn2cc(C3CC3)nc12` [Example 246] returned an EC50 below 200 nM.
Still for that read-out and setting: next, `C[C@]1(C(N)=O)COc2c1cc([C@@](O)(CNC(=O)c1ccc3nc(C(F)F)oc3c1)c1ccccc1)nc2-c1cc(Cl)c(F)cc1F` [Example 222]: above 200 nM.
The same measure, in the same setting: next, `Cc1nccc(-c2nc([C@@](O)(CNC(=O)c3cc(OC4CC4)c4nn(C5(F)CC5)cc4c3)c3cccc(F)c3)cc3c2OC[C@]3(C)C(N)=O)c1Cl` [Example 605]: below 200 nM.
Turning to `COc1cc(C(=O)NC[C@](O)(c2cc3c(c(-c4ccnc(C(F)(F)F)c4Cl)n2)OC[C@]3(C)C(N)=O)C(F)(F)F)cc2sc(C)nc12` [Example 537], the EC50 was below 200 nM.
The same measure, in the same setting: then `COc1cc(C(=O)NC[C@](O)(c2cc3c(c(-c4ccnc5ccccc45)n2)OC[C@]3(C)C(N)=O)C2CC2)cc2cn(C3CC3)nc12` [Example 430], with below 200 nM; and `COc1cc(C(=O)NC[C@@](O)(c2ccc(F)cc2)c2cc3c(c(-c4ccnc(C(F)(F)F)c4F)n2)OC[C@]3(C)C(N)=O)cc2cn(C3(F)CC3)nc12` [Example 573], with below 200 nM; and `COc1cc(C(=O)NC[C@@](O)(c2ccc(F)cc2)c2cc3c(c(-c4ccnc(C(F)(F)F)c4F)n2)OC[C@]3(C)C(N)=O)cc2cn(C3CC3)nc12` [Example 571], with below 200 nM.
In turn, `COc1c(F)ccc(-c2nc([C@@](O)(CNC(=O)c3cc(OC)c4nn(C5(F)CC5)cc4c3)c3ccccc3)cc3c2OC[C@]3(C)C(N)=O)c1Cl` [Example 375] yielded a 50% effective concentration (EC50) below 200 nM.
Molecule `C[C@]1(C(N)=O)COc2c1cc([C@@](O)(CNC(=O)c1cc(OC3CC3)c3ncc(Cl)cc3c1)c1ccccc1)nc2-c1cc(F)c(F)cc1F` [Example 197] showed an EC50 below 200 nM.
The same measure, in the same setting: next, `COc1cc(C(=O)NC[C@@](O)(c2cccc(F)n2)c2cc3c(c(-c4cc(Cl)c(F)cc4F)n2)OC[C@]3(C)C(N)=O)cc2cc(C3CC3)nn12` [Example 206]: below 200 nM.
On the same count and under the same terms, next, `COc1cc(C(=O)NC[C@@](O)(c2ccccc2)c2cc3c(c(-c4cc(Cl)c(F)cc4F)n2)OC[C@]3(C)C(N)=O)cc2cc(Cl)c(F)nc12` [Example 342]: above 200 nM.
`COc1cc(C(=O)NC[C@@](O)(c2ccccc2)c2cc3c(c(-c4cc(C(F)(F)F)c(F)cc4F)n2)OC[C@]3(C)C(N)=O)cc2cn(C(F)F)nc12` [Example 304]: the EC50 is below 200 nM.
`COc1cc(-c2nc([C@@](O)(CNC(=O)c3cc(OC)c4nn(C5CC5)cc4c3)C3CC3)cc3c2OC[C@]3(C)C(N)=O)c(F)cn1` [Example 388] registered a 50% effective concentration (EC50) below 200 nM.
Same read-out and setting: next, `COc1cc(C(=O)NC[C@@](O)(c2ccc(F)cc2)c2cc3c(c(-c4ccnc(C(F)F)c4Cl)n2)OC[C@]3(C)C(N)=O)cc2cn(C3CC3)nc12` [Example 569]: below 200 nM; `COc1cc(C(=O)NC[C@@](O)(c2ccc(=O)[nH]c2)c2cc3c(c(-c4cc(Cl)c(F)cc4F)n2)OC[C@]3(C)C(N)=O)cc2cn(C3CC3)nc12` [Example 505]: above 200 nM; `COc1cc(C(=O)NC[C@](O)(c2cc3c(c(-c4ccnc(Cl)c4Cl)n2)OC[C@]3(C)C(N)=O)C2CC2)cn2cc(C3CC3)nc12` [Example 578]: below 200 nM.
In the case of `C[C@]1(C(N)=O)COc2c1cc([C@@](O)(CNC(=O)c1cc(OCCO)c3nn(C4CC4)cc3c1)C1CC1)nc2-c1cc(Cl)c(F)cc1F` [Example 126], the EC50 is below 200 nM.
Regarding `COc1cc(C(=O)NC[C@@](O)(c2cccc(F)c2)c2cc3c(c(-c4ccc5c(c4Cl)OC(F)(F)O5)n2)OC[C@]3(C)C(N)=O)cc2oc(C3CC3)nc12` [Example 286], the EC50 was below 200 nM.
